Measurements: paper PMC9356039, “Multifunctional synthetic nano-chaperone for peptide folding and intracellular delivery” (Nature Communications, 2022)

Assays:
[1] = test system: HepG2 cells; experiment: CCK-8 cell viability; assay type: cell-based, human; settings: 24 h, 50
Protocol: Human liver cancer cell line HepG2 were grown in DMEM containing 10% FBS and 1% penicillin/streptomycin at 37 °C in a humidified atmosphere of 5% CO2. HepG2 cells (1.2 × 10^5 cells/well) were seeded in a 4-well glass plate for 24 h. Then, SNCPs@st-p53pep (0.02 mg/mL) and st-p53pep alone (2 μM) were added to each well in a serum-free medium for 4 h. After incubation, the cells were carefully rinsed with PBS, and the medium was replaced with a serum-containing fresh medium. After the nucleus was stained with Hoechst 33342 staining kit by manufacturer’s protocol, bright field and fluorescence images were obtained by using a DeltaVision Elite Microscopy System (GE Healthcare, USA). To observe the distribution of SNCP8 and st-p53pep in cells, TAMRA-labeled SNCP8@FAM-labeled st-p53pep (0.25 mg/mL) was treated in the same manner instead of SNCP8@st-p53pep. And then, the Mander’s overlap coefficient (MOC) was calculated in the Image J program (ver. 1.52a) via the JACoP plugin to identify co-localization between fluorescence signals over time. […] The cell viability was determined using cell counting kit-8 (CCK-8) assay by monitoring absorbance at 450 and 670 nm wavelength measured using a microplate reader (Molecular Devices, Inc., USA). The EC50 values of SNCPs@st-p53pep were determined by the logistic curve-fitting method with Origin (OriginLab, USA).

[2] = test system: MDM2 in HepG2 cells; experiment: Western blot, MDM2 protein level; assay type: cell-based, human
Protocol: Cells were lysed with Pro-PREP (IntronBio, Korea) according to the manufacturer’s protocol. The samples were centrifuged at 2000 × g and 4 °C for 15 min. The supernatant was collected to a 1.5 mL ep-tube and stored at −80 °C. After protein quantification using Pierce^TM BCA assay kit (Thermo Fisher Scientific, USA), the same amount of protein was diluted in water containing 5×loading buffer (Biosesang, Korea) and loaded on SDS-PAGE gel (Bio-rad, USA). After electrophoresis in Tris-Glycine SDS buffer at 80 V for 120 min, proteins in a gel were transferred to a nitrocellulose membrane (0.45 μm, Bio-rad, USA) in 1× Tris-Glycine Native Buffer (GenDEPOT, Korea) with 10% methanol at 90 V, and 4 °C for 90 min under stirring condition. The membrane was blocked with 5% milk to inhibit non-specific binding and immersed overnight at 4 °C in the presence of primary antibodies; GAPDH (1:2000, Abcam, USA), p53 (1:1000, Cell signaling, USA), MDM2 (1:1000, Cell signaling, USA), Bcl2 (1:1000, Cell signaling, USA) and CytC (1:1000, Cell signaling, USA). Anti-rabbit goat pAb, horseradish peroxidase (HRP)-linked antibody (1:5000, Abcam, USA) was used as a secondary antibody and the membrane was incubated for 1 h. After the reaction with the detection agent West Pico PLUS (Thermo Fisher Scientific, USA), bands of protein were monitored by a ImageQuant^TM LAS 4000 mini (GE Healthcare, USA). […]

[3] = CD spectroscopy, α-helicity by CONTIN-LL; assay type: physicochemical; settings: for helix1 / helix2 / helix % / strand1 / strand2 / total helix / turns / unordered: CONTINLL from CD spectra
Protocol: CD spectra were measured using a J-810 spectropolarimeter (JASCO, Japan). Spectra were recorded from 250 nm to 190 nm wavelength using a 1 cm path-length cuvette. Scans were repeated five times and averaged. Molar ellipticity was calculated per amino acid residue. The concentrations of SNCP and p53pep were 0.2 mg/mL and 20 μM, respectively. All sample suspensions were incubated at least for 2 days at room temperature before CD measurement. To perform temperature-dependent CD experiments, the spectra were recorded at 10 °C interval over a temperature range of 25 to 75 °C, with 30 min incubation time to reach equilibrium at each temperature. The α-helicity of peptides was calculated by using the CONTIN-LL algorithms provided from the DICHROWEB server.

SMILES: CC(C)C[C@@H]1NC(=O)[C@H](CC(C)C)NC(=O)[C@H](CCCNC(=N)N)NC(=O)[C@H](Cc2c[nH]c3ccccc23)NC(=O)[C@H](CC(C)C)NC(=O)[C@H](CC(N)=O)NC(=O)[C@H](NC(=O)[C@H](Cc2ccccc2)NC(=O)[C@@H](NC(=O)[C@H](CCC(N)=O)NC(=O)[C@H](CCC(N)=O)NC(=O)[C@H](CO)NC(=O)[C@H](CCC(N)=O)NC(=O)CNC(=O)CNC(=O)c2ccc3c(c2)C(=O)OC32c3ccc(O)cc3Oc3cc(O)ccc32)[C@@H](C)O)CCCCNC(=O)CCc2cn(nn2)CCC[C@@H](C(=O)N[C@@H](CCC(N)=O)C(=O)N[C@@H](CC(N)=O)C(N)=O)NC1=O [st-p53pep]
- cell viability at corresponding dose [1]: more than 80%
- MDM2 level relative to Control ([2]; /GAPDH, Control = 1): 0.8607
- MDM2 rel. (/GAPDH) ([2]; intensity divided by GAPDH): 0.7522
- helix1 ([3]; 25 ℃): 0.186
- helix2 ([3]; 25 ℃): 0.16
- helix % ([3]; 25 ℃): 34.6%
- strand1 ([3]; 25 ℃): 0.062
- strand2 ([3]; 25 ℃): 0.054
- total helix ([3]; 25 ℃): 0.346
- turns ([3]; 25 ℃): 0.123
- unordered ([3]; 25 ℃): 0.415
- helix1 ([3]; 35 ℃): 0.176
- helix2 ([3]; 35 ℃): 0.154
- helix % ([3]; 35 ℃): 33%
- strand1 ([3]; 35 ℃): 0.059
- strand2 ([3]; 35 ℃): 0.054
- total helix ([3]; 35 ℃): 0.33
- turns ([3]; 35 ℃): 0.092
- unordered ([3]; 35 ℃): 0.464
- helix1 ([3]; 45 ℃): 0.187
- helix2 ([3]; 45 ℃): 0.158
- helix % ([3]; 45 ℃): 34.5%
- strand1 ([3]; 45 ℃): 0.052
- strand2 ([3]; 45 ℃): 0.05
- total helix ([3]; 45 ℃): 0.345
- turns ([3]; 45 ℃): 0.11
- unordered ([3]; 45 ℃): 0.444
- helix1 ([3]; 55 ℃): 0.186
- helix2 ([3]; 55 ℃): 0.147
- helix % ([3]; 55 ℃): 33.3%
- strand1 ([3]; 55 ℃): 0.057
- strand2 ([3]; 55 ℃): 0.049
- total helix ([3]; 55 ℃): 0.333
- turns ([3]; 55 ℃): 0.117
- unordered ([3]; 55 ℃): 0.445
- helix1 ([3]; 65 ℃): 0.088
- helix2 ([3]; 65 ℃): 0.108
- helix % ([3]; 65 ℃): 19.6%
- strand1 ([3]; 65 ℃): 0.14
- strand2 ([3]; 65 ℃): 0.096
- total helix ([3]; 65 ℃): 0.196
- turns ([3]; 65 ℃): 0.134
- unordered ([3]; 65 ℃): 0.433
- helix1 ([3]; 75 ℃): 0.041
- helix2 ([3]; 75 ℃): 0.06
- helix % ([3]; 75 ℃): 10.1%
- strand1 ([3]; 75 ℃): 0.132
- strand2 ([3]; 75 ℃): 0.079
- total helix ([3]; 75 ℃): 0.101
- turns ([3]; 75 ℃): 0.348
- unordered ([3]; 75 ℃): 0.341
- α-helicity ([3]; extracted peptide after re-encapsulation in SNCP8): 73.4%
- α-helicity ([3]; peptide extracted from SNCP8@st-p53pep): 34.6%
